Results on two substances are retold here after patent US8314075B2, “Compositions and methods for inhibiting expression of huntingtin gene” (Alynylam Pharmaceuticals, Inc., priority 2005, dated 2012).

The subject of data set [1] is Huntingtin mRNA. Kind of data set: In vivo down-modulation of endogenous HD mRNA by continuous intrastriatal infusion in rats. The arrangement: species or system rat. The settings on record: 1.3 mg over 7 days (0.5 uL/hr at 1.1 mM), ipsilateral striatum. The procedure:
In rats, 1.3 mg AL-DP-1997 or AL-DP-1998, or phosphate-buffered saline (PBS, vehicle control) was administered by continuous intrastriatal infusion over 7 days. Male Sprague-Dawley rats, approximately 250-300 g body weight, received stereotaxic implantation of 30-gauge infusion cannulae (Plastics One, Roanok, Va.) such that unilateral injections were targeted to the center of the striatum (anteroposterior+0.7 mm, mediolateral+3.0 mm, relative to bregma; dorsoventral 5 mm, relative to skull surface). Mini-osmotic pumps (model 1007D) were primed overnight according to the manufacturer's specifications, implanted subcutaneously, and connected via catheters, to deliver (4 rats per treatment group) PBS, 1.1 mM AL-DP-1997 or 1.1 mM AL-DP-1998 at 0.5 uL/hr over 7 days. At the end of the 7 day infusion period, animals were sacrificed, brains were removed, and ipsilateral striata encompassing the infusion site were flash frozen. Tissue samples of about 5-30 mg each were homogenized by sonication (BANDELIN electronic GmbH & Co. KG, Berlin, Germany) in Tissue and Cell Lysis solution (Epicentre, Madison, Wis.) containing 84 μg/ml Proteinase K (Epicentre, Madison, Wis.). Lysates were then stored at −80° C. For carrying out the bDNA assay, frozen lysates were thawed at room temperature, and Huntingtin and GAPDH mRNA were quantified using the Quantigene Explore Kit according to the manufacturer's instructions. For each tissue sample, the ratio of Huntingtin/GAPDH (normalized Huntingtin mRNA level) was calculated as an average of four determinations. These ratios were then averaged to obtain a group (treatment) average. The unconjugated dsRNA, AL-DP-1997, reduced the normalized Huntingtin mRNA level by 33%, relative to the PBS control group, whereas the cholesterol-conjugated dsRNA, AL-DP-1998, reduced the normalized Huntingtin mRNA level by 26%, relative to the PBS control group. Both reductions were statistically significant (p<0.05, ANOVA with Tukey post-hoc analysis).
With an identical experimental paradigm, AL-DP-5997 and AL-DP-6000 were also found to be effective in vivo in down-modulating HD mRNA levels after intrastriatal infusion with 1.3 mg over 7 days (0.5 uL/hr at 1.1 mM) in rats. AL-DP-5997 and AL-DP-6000 reduced the normalized Huntingtin mRNA levels in striatal tissue by 34% and 36%, respectively, relative to the PBS control group. In addition, AL-DP-5997 and AL-DP-6000 reduced the normalized Huntingtin mRNA levels in cortical tissue by 22% and 26% respectively.

For data set [2], the system named is Huntingtin mRNA. As to the kind of experiment: In vivo down-modulation of endogenous HD mRNA by intrastriatal infusion in mice. The arrangement: species or system mouse. The note with it: Balb/c mice, 75 ug by 20 minute intrastriatal infusion, ipsilateral striatum, approximately 72 hours after injection. The procedure: In mice, 75 ug AL-DP-1998, or phosphate-buffered saline (PBS, vehicle control) was administered by a 20 minute intrastriatal infusion. Male Balb/c mice, approximately 20-25 g body weight, received unilateral injections of test article that were targeted to the striatum (anteroposterior+0.5 mm, mediolateral+2.0 mm, relative to bregma; dorsoventral 3.5 mm, relative to skull surface). Test articles (1.1 mM) were injected (4 animals per test article) at 0.25 uL/min. using pre-filled, pump-regulated Hamilton micro-syringes connected to a 33 gauge needle. Approximately 72 hours following the injection, animals were sacrificed, brains were removed, and ipsilateral striata encompassing the infusion site were dissected and flash frozen. As described above for rat tissue samples, mouse tissue samples were lysed, and Huntingtin and GAPDH mRNA levels quantified. For each tissue sample, the ratio of Huntingtin/GAPDH (normalized Huntingtin mRNA level) was calculated as an average of four determinations. These ratios were then averaged to obtain a group (treatment) average. The cholesterol-conjugated dsRNA, AL-DP-1998, reduced the normalized Huntingtin mRNA level by 33%, relative to the PBS control group, which was statistically significant (p<0.05, ANOVA with Tukey post-hoc analysis).

Strand notation (5' to 3'): a small letter for the sugar, then the base; units joined by * are phosphorothioate-linked, units joined directly phosphodiester-linked; [ ] holds rarer units or linkages, { } end groups; capitals alone tell only the bases. [5BrU] = 5-bromo-uracil base (5-bromo-2'-deoxyuridine on d sugar); d = 2'-deoxy (DNA); m = 2'-O-methyl; r = 2'-OH (RNA)

“AL-DP-1997: unconjugated dsRNA based on AL-DP-5997, antisense 3'-end TT replaced with 5-bromo-2'-deoxyuridine; SEQ ID NO: 886/887 (chain 1 rGmUmCrAmCrArArArGrArAmCmCrGmUrGmCrArGdT*dT; chain 2 rCrUrGmCrArCrGrGrUrUrCrUrUrUrGrUrGrArCd[5BrU]*d[5BrU])”: the “reduction of normalized Huntingtin mRNA level in striatal tissue relative to the PBS control group” value with Huntingtin mRNA [1] is recorded as 33%.
For the substance “AL-DP-1998: cholesterol-conjugated dsRNA based on AL-DP-5997, antisense 3'-end TT replaced with 5-bromo-2'-deoxyuridine; SEQ ID NO: 888/889 (chain 1 GUCACAAAGAACCGUGCAGTT; chain 2 CUGCACGGUUCUUUGUGACNN; chemistry not fully specified)”, the “reduction of normalized Huntingtin mRNA level in striatal tissue relative to the PBS control group” value with Huntingtin mRNA [1] is given as 26%. The “reduction of normalized Huntingtin mRNA level relative to the PBS control group” value in the data set with Huntingtin mRNA [2] is given as 33%.
